Measurements as given in patent US11655232B2 (Celgene Corporation, priority 2003, dated 2023).
≈ marks a conversion by molar mass, not a printed value. Where “and” joins values, the source holds several entries; their conditions need not be identical. Identical values can stand only once. Entries after “also recorded” stand apart in the source; their conditions may differ. Marks after values point to notes of the source that are not given here.

How the values were obtained:
[1] = Moisture sorption/desorption; format: physicochemical
Experimental: Moisture sorption/desorption data were collected on a VTI SGA-100 moisture balance system. For sorption isotherms, a sorption range of 5 to 95% relative humidity (RH) and a desorption range of 95 to 5% RH in 10% RH increments was used for analysis. The sample was not dried prior to analysis. Equilibrium criteria used for analysis were less than 0.0100 weight percent change in 5 minutes with a maximum equilibration time of 3 hours if the weight criterion was not met. Data were not corrected for the initial moisture content of the samples.

[2] = Desolvation by heating; format: physicochemical; settings: about 150° C. for about five minutes
[3] = Interconversion slurry experiments
Experimental: Interconversion experiments were carried out by making slurries containing two forms in a saturated solvent. The slurries were agitated for approximately 7-20 days at ambient temperature. The insoluble solids were recovered by filtration and analyzed using XRPD.

[4] = Intrinsic dissolution (Woods apparatus); format: physicochemical; settings: for dissolution rates (estimated) / Final Form of undissolved solids after intrinsic dissolution (XRPD) / Intrinsic Dissolution #2 (rate): HCl buffer pH 1.8, 1% sodium lauryl sulfate; for Final Form of undissolved solids after intrinsic dissolution (XRPD) / Intrinsic Dissolution #1 (rate) / Intrinsic Dissolution #2 (rate): 37° C.; for Average Intrinsic Dissolution Rate: average of experiments #1 and #2; for Intrinsic Dissolution #1 (rate): experiment #1, 900 mL HCl buffer pH 1.8, 1% sodium lauryl sulfate; for Intrinsic Dissolution #1 (rate) / Intrinsic Dissolution #2 (rate): 50 rpm; for Intrinsic Dissolution #2 (rate): experiment #2
Experimental: Dissolution experiments were carried out in a VanKel VK6010-8 dissolution apparatus equipped with a VK650A heater/circulator. An intrinsic dissolution apparatus (Woods apparatus) was used. Samples were compressed at 1.5 metric tons (1000 psi) for 1 min using the Woods apparatus in a hydraulic press, giving a sample surface of 0.50 cm^2. […] The medium was degassed by vacuum filtration through a 0.22-μm nylon filter disk and maintained at 37° C. The apparatus was rotated at 50 rpm for each experiment. Aliquots were filtered immediately using 0.2-μm nylon syringe filters. In some cases, the undissolved solids were recovered and analyzed by X-ray powder diffraction (XRPD).
(§1) Diffracted radiation was detected by a NaI scintillation detector.

[5] = Temperature/relative humidity stress storage; format: physicochemical; settings: about 85 days; room temperature/0% RH and 40° C./93% RH
[6] = Compression and grinding, form check by XRPD; format: physicochemical; settings: compressed into disks in Woods apparatus, 2 metric tons, ground gently
Experimental: as §1
Approximately 200 mg each of Forms A and B were compressed into disks in the Woods apparatus using 2 metric tons of pressure. The samples were subsequently scraped out, ground gently, and analyzed by XRPD. […] (See Table 7).

[7] = Equilibrium solubility in dissolution medium; settings: for Final Form of solids remaining from solubility experiment (XRPD) / Concentration: HCl buffer pH 1.8, 1% sodium lauryl sulfate; for Final Form of solids remaining from solubility experiment (XRPD): final time point
Experimental: A solid sample of 400-450 mg was stirred in 50 mL of dissolution medium (HCl buffer, pH 1.8, with 1% sodium lauryl sulfate) using a mechanical stir rod. Aliquots were filtered using 0.2-μm nylon syringe filters and immediately diluted 1 mL→50 mL, then 5 mL→25 mL with dissolution medium in Class A glassware, a final dilution factor of 250.
Dissolution and solubility samples solutions were analyzed by a Beckman DU 640 single-beam spectrophotometer. A 1.000-cm quartz cuvette and an analysis wavelength of 228.40 nm were utilized. The detector was zeroed with a cuvette filled with dissolution medium.
XRPD analyses were carried out on a Shimadzu XRD-6000 X-ray powder diffractometer using Cu Kα radiation. The instrument is equipped with a fine focus X-ray tube. The tube power and amperage were set at 40 kV and 40 mA, respectively. The divergence and scattering slits were set at 1° and the receiving slit was set at 0.15 mm. Diffracted radiation was detected by a NaI scintillation detector. A theta-two theta continuous scan at 3°/min (0.4 sec/0.02° step) from 2.5 to 40°2θ was used. A silicon standard was analyzed each day to check the instrument alignment. Samples were packed in an aluminum holder with silicon insert.

[8] = from 5 to 95% relative humidity

Nc1cccc2c1CN(C1CCC(=O)NC1=O)C2=O (stereo not shown) [Form C, 3-(4-amino-1-oxo-1,3 dihydro-isoindol-2-yl)-piperidine-2,6-dione]
hygroscopicity (summary) [1]: not hygroscopic below about 85% RH | weight loss ([1]; at 95% relative humidity): about 6.03% | weight gain on moisture sorption ([1]; from 5 to 85% relative humidity): does not exhibit a significant weight gain | form after heating (desolvation) [2]: will typically convert to Form A | interconversion / stability in solvent system ([3]; THF solvent system): typically converts to Form A | interconversion / stability in solvent system ([3]; acetone solvent system): most stable form | interconversion / stability in solvent system ([3]; aqueous solvent systems): typically converts to Form E

Nc1cccc2c1CN(C1CCC(=O)NC1=O)C2=O (single isomer, unassigned) [Form B, 3-(4-amino-1-oxo-1,3 dihydro-isoindol-2-yl)-piperidine-2,6-dione]
Cumulative Amount Dissolved per Unit Area ([4]; Experiment #1, 5 min): 10.80^b mg/cm2 | Cumulative Amount Dissolved per Unit Area ([4]; Experiment #1, 10 min): 6.85 mg/cm2 | Cumulative Amount Dissolved per Unit Area ([4]; Experiment #1, 20 min): 10.25 mg/cm2 | Cumulative Amount Dissolved per Unit Area ([4]; Experiment #1, 30 min): 14.35 mg/cm2 | Cumulative Amount Dissolved per Unit Area ([4]; Experiment #1, 45 min): 20.57 mg/cm2 | Cumulative Amount Dissolved per Unit Area ([4]; Experiment #1, 60 min): 25.70 mg/cm2 | Cumulative Amount Dissolved per Unit Area ([4]; Experiment #1, 90 min): 34.34 mg/cm2 | Cumulative Amount Dissolved per Unit Area ([4]; Experiment #2, 5 min): 5.04 mg/cm2 | Cumulative Amount Dissolved per Unit Area ([4]; Experiment #2, 10 min): 6.12 mg/cm2 | Cumulative Amount Dissolved per Unit Area ([4]; Experiment #2, 20 min): 7.73 mg/cm2 | Cumulative Amount Dissolved per Unit Area ([4]; Experiment #2, 30 min): 12.72 mg/cm2 | Cumulative Amount Dissolved per Unit Area ([4]; Experiment #2, 45 min): 17.33 mg/cm2 | Cumulative Amount Dissolved per Unit Area ([4]; Experiment #2, 60 min): 21.93 mg/cm2 | Cumulative Amount Dissolved per Unit Area ([4]; Experiment #2, 90 min): 31.64 mg/cm2 | Cumulative Amount Dissolved per Unit Area ([4]; Experiment #2, 120 min): 41.31 mg/cm2 | Cumulative Amount Dissolved per Unit Area ([4]; Experiment #2, 150 min): 49.54 mg/cm2 | dissolution rates (estimated) [4]: 0.34 mg/cm²/min | Final Form of undissolved solids after intrinsic dissolution (XRPD) [4]: did not change | Average Intrinsic Dissolution Rate [4]: 0.34 mg per cm^2 per minute | Intrinsic Dissolution #1 (rate) [4]: 0.35 mg per cm^2 per minute | Intrinsic Dissolution #2 (rate) [4]: 0.32 mg per cm^2 per minute | weight gain on moisture sorption [1, 8]: does not exhibit a significant weight gain | form after stress storage [5]: does not convert to a different form | Final Form after pressing (compression and grinding, XRPD) [6]: does not cause a form change | interconversion / stability in solvent system ([3]; THF solvent system): typically converts to Form A | interconversion / stability in solvent system ([3]; acetone solvent system): typically converts to Form C | interconversion / stability in solvent system ([3]; anhydrous solvent systems): converts to other forms | interconversion ([3]; in the presence of water): can convert to Form E | Final Form of solids remaining from solubility experiment (XRPD) [7]: Form B | Solubility ([7]; HCl buffer, pH 1.8, with 1% sodium lauryl sulfate, 25° C., estimated): 5800 µg/mL (≈ 22.4 mM) | Concentration stabilized ([7]; final three time points (180, 420, 650 min)): 5600 to 5700 µg/mL | stability in water (suggested by remaining solids) ([7]; slurry in dissolution medium up to 650 min): good stability in water | Concentration ([7]; time point 7 min, 25° C.): 1630 µg/mL | Concentration ([7]; time point 15 min, 25° C.): 2140 µg/mL | Concentration ([7]; time point 30 min, 25° C.): 2330 µg/mL | Concentration ([7]; time point 60 min, 25° C.): 2940 µg/mL | Concentration ([7]; time point 90 min, 25° C.): 3300 µg/mL and 3340 µg/mL | Concentration ([7]; time point 180 min, 25° C.): 5670 µg/mL | Concentration ([7]; time point 420 min, 25° C.): 5760 µg/mL | Concentration ([7]; time point 650 min, 25° C.): 5610 µg/mL

Nc1cccc2c1CN(C1CCC(=O)NC1=O)C2=O (stereo not shown) [Form D, 3-(4-amino-1-oxo-1,3 dihydro-isoindol-2-yl)-piperidine-2,6-dione]
hygroscopicity (summary) [1]: either weakly or not hygroscopic | weight gain on moisture sorption [1, 8]: does not exhibit a significant weight gain | form after heating (desolvation) [2]: will typically convert to Form A | interconversion / stability in solvent system ([3]; THF solvent system): capable of converting to Form A

Nc1cccc2c1CN(C1CCC(=O)NC1=O)C2=O (stereo not shown) [Form H, 3-(4-amino-1-oxo-1,3 dihydro-isoindol-2-yl)-piperidine-2,6-dione]
interconversion ([3]; slurried in water with either Forms A or B, about 14 days): can convert to Form E

Nc1cccc2c1CN(C1CCC(=O)NC1=O)C2=O (single isomer, unassigned) [Form A, 3-(4-amino-1-oxo-1,3 dihydro-isoindol-2-yl)-piperidine-2,6-dione]
Cumulative Amount Dissolved per Unit Area ([4]; Experiment #1, 5 min): 5.76 mg/cm2 | Cumulative Amount Dissolved per Unit Area ([4]; Experiment #1, 10 min): 7.73 mg/cm2 | Cumulative Amount Dissolved per Unit Area ([4]; Experiment #1, 20 min): 11.31 mg/cm2 | Cumulative Amount Dissolved per Unit Area ([4]; Experiment #1, 30 min): 15.59 mg/cm2 | Cumulative Amount Dissolved per Unit Area ([4]; Experiment #1, 45 min): 21.98 mg/cm2 | Cumulative Amount Dissolved per Unit Area ([4]; Experiment #1, 60 min): 27.11 mg/cm2 | Cumulative Amount Dissolved per Unit Area ([4]; Experiment #1, 90 min): 34.17 mg/cm2 | Cumulative Amount Dissolved per Unit Area ([4]; Experiment #2, 5 min): 4.50 mg/cm2 | Cumulative Amount Dissolved per Unit Area ([4]; Experiment #2, 10 min): 5.22 mg/cm2 | Cumulative Amount Dissolved per Unit Area ([4]; Experiment #2, 20 min): 7.54 mg/cm2 | Cumulative Amount Dissolved per Unit Area ([4]; Experiment #2, 30 min): 11.46 mg/cm2 | Cumulative Amount Dissolved per Unit Area ([4]; Experiment #2, 45 min): 15.01 mg/cm2 | Cumulative Amount Dissolved per Unit Area ([4]; Experiment #2, 60 min): 18.38 mg/cm2 | Cumulative Amount Dissolved per Unit Area ([4]; Experiment #2, 90 min): 24.38 mg/cm2 | Cumulative Amount Dissolved per Unit Area ([4]; Experiment #2, 120 min): 30.35 mg/cm2 | Cumulative Amount Dissolved per Unit Area ([4]; Experiment #2, 150 min): 35.26 mg/cm2 | dissolution rates (estimated) [4]: 0.35 mg/cm²/min | Final Form of undissolved solids after intrinsic dissolution (XRPD) [4]: did not change; also recorded: does not indicate a form change | Average Intrinsic Dissolution Rate [4]: 0.29^a mg per cm^2 per minute | Intrinsic Dissolution #1 (rate) [4]: 0.35 mg per cm^2 per minute | Intrinsic Dissolution #2 (rate) [4]: 0.22 mg per cm^2 per minute and 0.22^a mg per cm^2 per minute | true intrinsic dissolution rate (believed) ([4]; judged from experiment #1, since #2 disk surface may have converted to Form E): ~0.35 mg per cm^2 per minute | hygroscopicity (summary) [1]: weakly or not hygroscopic | weight lost from start to finish ([1]; at 5% relative humidity after drying from 95% back down to 5%): about 0.003 % by weight | weight gain on moisture sorption [1, 8]: does not exhibit a significant weight gain | form after stress storage [5]: typically does not convert to a different form | Final Form after pressing (compression and grinding, XRPD) [6]: does not cause a form change | thermodynamic stability among anhydrous polymorphs (summary) [3]: most thermodynamically stable anhydrous polymorph | interconversion / stability in solvent system ([3]; acetone solvent system): can convert to Form C | interconversion / stability in solvent system ([3]; anhydrous solvent systems): tends to be stable | interconversion / stability in solvent system ([3]; aqueous solvent systems): can convert to Form B | interconversion ([3]; water systems, in the presence of Form E): tends to convert to Form E | Final Form of solids remaining from solubility experiment (XRPD) [7]: unstable in the medium, converting to Form E | Concentration ([7]; time point 7 min, 25° C.): 6000 µg/mL | Concentration ([7]; time point 15 min, 25° C.): 6110 µg/mL | Concentration ([7]; time point 30 min, 25° C.): 6200 µg/mL and 6160 µg/mL | Concentration ([7]; time point 60 min, 25° C.): 6100 µg/mL | Concentration ([7]; time point 90 min, 25° C.): 5460 µg/mL | Concentration ([7]; time point 150 min, 25° C.): 4700 µg/mL and 4730 µg/mL
